Test results reported in PMC3847553, “Kinetic properties of “dual” orexin receptor antagonists at OX1R and OX2R orexin receptors” (Frontiers in Neuroscience, 2013).
pKi: −log10 of the molar value. Where two headings read alike, the source gives them in different places.

Assays:
mouse OX2R = biological target: T1, mouse OX2R (Mus musculus, UniProt P58308); assay: FLIPR orexin A-stimulated calcium accumulation, mouse OX2R; type: cell-based; conditions: HEK cells; for Ki: read-out: pKi (converted)
T1 construct: expressed in transfected cells; host or cells: HEK; cells from GNF, San Diego
T1 sequence (P58308 1-460): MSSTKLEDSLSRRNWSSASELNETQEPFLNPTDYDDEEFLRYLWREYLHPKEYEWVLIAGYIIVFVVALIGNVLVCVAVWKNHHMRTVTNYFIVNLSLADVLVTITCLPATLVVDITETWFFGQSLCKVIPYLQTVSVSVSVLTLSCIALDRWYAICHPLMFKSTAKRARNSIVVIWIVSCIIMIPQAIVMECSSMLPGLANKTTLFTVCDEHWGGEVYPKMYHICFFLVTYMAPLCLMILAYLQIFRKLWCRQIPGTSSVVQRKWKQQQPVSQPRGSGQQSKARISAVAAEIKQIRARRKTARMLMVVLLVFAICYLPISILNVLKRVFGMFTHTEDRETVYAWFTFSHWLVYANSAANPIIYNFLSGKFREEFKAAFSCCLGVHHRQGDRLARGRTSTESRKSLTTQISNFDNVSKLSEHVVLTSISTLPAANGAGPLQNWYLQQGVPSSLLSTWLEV
From the text: Chinese Hamster Ovary (CHO) cells stably transfected with the cDNA encoding the human OX1R (CHO-hOX1) or OX2R (CHO-hOX2) were used (kindly provided by T. Cremer and Dr. S. Geisse, NIBR Basel, Switzerland). For measurements of calcium accumulation using FLIPR® (Fluorescent Imaging Plate Reader) assay, CHO or Human Embryonic Kidney (HEK) cells stably expressing mouse, rat or human OX1R or OX2R (kindly provided by Dr. A. Chen, GNF, San Diego, CA, USA) were used. […] Cells were maintained in a humidified incubator at 37°C in 5% CO2. For crude cell membrane preparations, cells were washed and harvested in 10 mM HEPES (pH 7.5), and centrifuged at 4°C for 5 min at 2500 g. The cell pellet was either stored at −80°C or used directly.
Cells expressing either human, rat or mouse OX1R or OX2R were seeded at 8,000 cells/well in black 384 well clear bottom plates and incubated overnight at 37°C. The following day, medium was discarded and cells loaded with 50 μ l of 1 mM Fluo-4 AM (Invitrogen F14202) in dimethyl sulfoxide in working buffer (Hanks' balanced salt solution, 10 mM HEPES) and incubated for 60 min at 37°C. The loading buffer was removed and cells were washed with 100 μ l working buffer containing […], 0.1% BSA, and 2.5 mM Probenecid (pH 7.4) to remove the excess Fluo-4 AM. […] The assay plate was then transferred to the Molecular Devices-FLIPR384. The baseline calcium signal was recorded for 10 s, then the antagonist of interest was injected (10 μl at 3 times the final concentration) and the calcium signal recorded every second for 1 min, then every 2 s 40 times.

sleep wake cycle = test system: sleep wake cycle; parameters: method as in Mang et al., 2012; conditions: ref Mang et al., 2012, cited from earlier work
OX1R = assay: FLIPR calcium assay, OX1R, species not given; type: cell-based; conditions: species not stated
Description: (§1) Determination of orexin A-stimulated calcium accumulation was performed over 2 days using FLIPR® (Fluorescent imaging plate reader from Molecular Devices-FLIPR384). Cells expressing either human, rat or mouse OX1R or OX2R were seeded at 8,000 cells/well in black 384 well clear bottom plates and incubated overnight at 37°C. The following day, medium was discarded and cells loaded with 50 μ l of 1 mM Fluo-4 AM (Invitrogen F14202) in dimethyl sulfoxide in working buffer (Hanks' balanced salt solution, 10 mM HEPES) and incubated for 60 min at 37°C. The loading buffer was removed and cells were washed with 100 μ l working buffer containing […], 0.1% BSA, and 2.5 mM Probenecid (pH 7.4) to remove the excess Fluo-4 AM. Working buffer was added and plates were incubated 10–15 min at room temperature. The assay plate was then transferred to the Molecular Devices-FLIPR384. The baseline calcium signal was recorded for 10 s, then the antagonist of interest was injected (10 μl at 3 times the final concentration) and the calcium signal recorded every second for 1 min, then every 2 s 40 times. Plates were then incubated at room temperature for 30 min, 1, 2, or 4 h.

OX2R = assay: FLIPR calcium assay, OX2R, species not given; type: cell-based; conditions: species not stated
Description: as §1

REM sleep = test system: REM sleep; parameters: method as in Bettica et al., 2012b, 2012c; conditions: 10, 30, or 60 mg; healthy volunteers and insomnia patients; ref Bettica et al., 2012b, 2012c; cited from earlier work

Cc1ccc(-c2ncccn2)c(C(=O)N2C[C@H](COc3ccc(F)cn3)CC[C@H]2C)c1 [Filorexant]
Ki (mouse OX2R; antagonist incubation 30 min): 2.14 nM
Ki (mouse OX2R; antagonist incubation 1 h): 2.09 nM
Ki (mouse OX2R; antagonist incubation 2 h): 1.45 nM
Ki (mouse OX2R; antagonist incubation 4 h): 1.29 nM

CNC(=O)[C@@H](c1ccccc1)N1CCc2cc(OC)c(OC)cc2[C@@H]1CCc1ccc(C(F)(F)F)cc1 [Almorexant]
Ki (mouse OX2R; antagonist incubation 1 h): 9.33 nM
Ki (mouse OX2R; antagonist incubation 2 h): 8.13 nM
Ki (mouse OX2R; antagonist incubation 4 h): 4.17 nM
pKi (mouse OX2R; antagonist incubation 30 min): 7.72
effect on sleep (sleep wake cycle; OX1R KO mice): effective
effect on the sleep wake cycle (sleep wake cycle; OX2R KO mice): no effect on the sleep wake cycle
effect on the sleep wake cycle (sleep wake cycle; double receptor KO mice): no effect on the sleep wake cycle

COc1ccnc(N2CCC3(CCCN(Cc4c[nH]c5ccccc45)C3=O)CC2)n1 [IPSU, 2-((1H-Indol-3-yl)methyl)-9-(4-methoxypyrimidin-2-yl)-2,9-diazaspiro[5.5]undecan-1-one]
Ki (mouse OX2R; antagonist incubation 30 min): 70.8 nM
Ki (mouse OX2R; antagonist incubation 1 h): 79.4 nM
Ki (mouse OX2R; antagonist incubation 2 h): 55 nM
Ki (mouse OX2R; antagonist incubation 4 h): 60.3 nM
effect of incubation time on potency in calcium assay (OX1R): constant potency values irrespective of the incubation time
effect of incubation time on potency in calcium assay (OX2R): constant potency values irrespective of the incubation time

Cc1ccc(-n2nccn2)c(C(=O)N2CCN(c3nc4cc(Cl)ccc4o3)CC[C@H]2C)c1 [Suvorexant]
pKi (mouse OX2R; antagonist incubation 30 min): 7.99
pKi (mouse OX2R; antagonist incubation 1 h): 8.17
pKi (mouse OX2R; antagonist incubation 2 h): 8.24
pKi (mouse OX2R; antagonist incubation 4 h): 8.35

Cc1nc(C(=O)N2CCCC[C@H]2CNC(=O)c2cccc3occc23)c(-c2ccc(F)cc2)s1 [SB-649868]
Ki (mouse OX2R; antagonist incubation 30 min): 1.82 nM
Ki (mouse OX2R; antagonist incubation 1 h): 2.82 nM
Ki (mouse OX2R; antagonist incubation 2 h): 1.17 nM
Ki (mouse OX2R; antagonist incubation 4 h): 0.912 nM
REM duration (REM sleep): increases REM duration
latency to REM (REM sleep): decreases latency to REM
